# Laboratory results: PubChem BioAssay (NCI)
#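 Briefly, cells in 96-well plates were exposed to five compound concentrations for 48 h, and endpoints were estimated by linear interpolation. TGI: concentration producing complete growth inhibition.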 Where a SMILES comes first, the peptide text is derived from it. Bridges are numbered along the chain shown (N, C = ends). The star is where a group is joined. Cbz = O=C(OCc1ccccc1)*
# How the values were obtained:
# Test in all cases: inhibition of tumour cell growth, NCI panel, 48 h
# MDA-N = system: MDA-N
# NCI-H226 lung = system: NCI-H226 lung
# 786-0 renal = system: 786-0 renal
# HOP-62 NSCLC = system: HOP-62 NSCLC
# HCT-116 colon = system: HCT-116 colon
# RXF 393 renal = system: RXF 393 renal
# M14 melanoma = system: M14 melanoma
# HS 578T breast = system: HS 578T breast
# SF-268 CNS = system: SF-268 CNS
# UO-31 renal = system: UO-31 renal
Structure (SMILES),TGI (MDA-N) [µM],TGI (NCI-H226 lung) [µM],TGI (786-0 renal) [µM],TGI (HOP-62 NSCLC) [µM],TGI (HCT-116 colon) [µM],TGI (RXF 393 renal) [µM],TGI (M14 melanoma) [µM],TGI (HS 578T breast) [µM],TGI (SF-268 CNS) [µM],TGI (UO-31 renal) [µM]
C=C(Br)CNCC(=C)Br,> 100,> 100,> 100,> 100,> 100,> 100,> 100,> 100,> 100,> 100
CC1C2CC(C/C2=N/O)C1(C)C (stereo not given),> 100,> 100,> 100,> 100,> 100,> 100,> 100,> 100,> 100,> 100
Cc1cc(O)ccc1C1(c2ccc(F)cc2)OC(=O)c2ccccc21 (stereo not given),25,8.28,22.2,19.7,12.6,3.33,27.1,2.41,39.7,16.1
c1csc(-c2csc(-c3ccsc3)c2)c1,> 100,> 100,> 100,> 100,> 100,> 100,> 100,> 100,> 100,> 100
COP(=O)(OC)C(NC=O)P(=O)(OC)OC,> 100,> 100,> 100,> 100,> 100,> 100,> 100,> 100,> 100,> 100
N#CC12C(=O)N3C(=NC(c4ccccc4)NC3c3ccccc3)C1(C#N)C(c1ccccc1)NC1=C2CCCC1 (stereo not given),> 100,> 100,> 100,> 100,> 100,> 100,> 100,> 100,> 100,> 100
S=C(N/N=C\c1ccccn1)N(Cc1ccccn1)Cc1ccccn1,47.9,1.78,13.3,41.7,16.5,32.2,43.7,> 74.4,30.9,7.87
COC(=O)C1CCCCNC(=O)CCC(NC(=O)OCc2ccccc2)C(=O)N1 (stereo not drawn) (Cbz-Glu-Lys-OMe; lactam 1-2; configuration not given here),> 100,> 100,> 100,> 100,> 100,> 100,> 100,> 100,> 100,> 100
Cn1c2c(c3ccccc31)CCN1C(=O)C3SC21C1C(=O)N(c2ccccc2)C(=O)C31 (stereo not given),> 100,> 100,> 100,> 100,> 100,> 100,> 100,> 100,> 100,> 100
O=c1[nH]c2cc3cccnc3c(Cl)c2nc1CBr,34.9,56.1,25.2,29.4,25.8,34.6,27.8,28.3,64.7,23.6
O=C1c2ccccc2-c2nc(-c3ccccc3)cc3c2c1nc1ccccc13,3.67,54.5,> 100,47.2,36.5,> 100,18.3,63.9,65.7,84.1
CCn1c2ccc(O)c(C(=O)OC)c2c2cc3ccccc3c(O)c21,72.4,83.8,30.7,45,29.2,> 100,47.5,45.2,63.6,> 100
O/N=C1\CCc2nonc2\C1=N/Nc1ccccc1,> 100,> 100,> 100,> 100,> 100,> 100,> 100,> 100,> 100,> 100
CCOC(=O)c1c(N2CCOCC2)[nH]c(=O)c(C(c2cccs2)c2c(O)c(C(=O)OCC)c(N3CCOCC3)[nH]c2=O)c1O,> 100,> 100,> 100,> 100,> 100,> 100,> 100,> 100,> 100,> 100
O=S(=O)(O)c1cc(O)c2c(O)c(N=Nc3cccc4ccccc34)c(S(=O)(=O)O)cc2c1,> 100,> 100,> 100,> 100,> 100,> 100,> 100,> 100,> 100,> 100
CC(NNC(=O)c1ccncc1)c1ccc(Cl)c(Cl)c1 (stereo not given),> 100,> 100,> 100,> 100,> 100,> 100,> 100,> 100,> 100,> 100
ONC1=Nc2ccccc2OCc2cc(Br)c(Br)cc2COc2ccccc2N=C1NO,34.1,> 52.7,> 44.3,38.9,32.9,47.9,> 54.2,> 69.8,> 57.4,> 54.4
